# Laboratory results reported in ChEMBL document CHEMBL1140551, “N-Benzyl-3-sulfonamidopyrrolidines as novel inhibitors of cell division in E. coli” (2007).
# Activity calls are given as the source filed them. No cut-off for these calls is given here.
# Columns and labels:
# Escherichia coli [1] = assay: Inhibition of GTPase activity of Escherichia coli FtsZ at 100 uM
# Escherichia coli [2] = assay: Antimicrobial activity against AcrAB efflux pump-deficient Escherichia coli DCR39; format: functional
# Escherichia coli [3] = assay: Induction of filamentation in Escherichia coli DCR39 at 5 uM after 15 hrs; format: functional, organism-based
inhibition (Escherichia coli [1]) [%],MIC (Escherichia coli [2]) [µM],Structure (SMILES),Activity (Escherichia coli [3])
31.9,> 80,Cc1ccc(F)cc1S(=O)(=O)N[C@@H]1CCN(C(=O)c2ccc(OC(C)C)cc2)C1,
,> 80,Cc1ccc(F)cc1S(=O)(=O)N[C@@H]1CCN(Cc2ccc(C(=O)c3ccccc3)cc2)C1,
9.4,< 10,Cc1ccc(F)cc1S(=O)(=O)N[C@@H]1CCN(Cc2ccc(-c3ccccc3)cc2)C1,
,< 12,C#Cc1ccc(S(=O)(=O)N[C@@H]2CCN(Cc3ccc(CC(C)C)cc3)C2)cc1,
12.3,20,Cc1ccc(F)cc1S(=O)(=O)N[C@@H]1CCN(Cc2ccc(Oc3ccccc3)cc2)C1,
,10,CC(C)Cc1ccc(CN2CC[C@@H](NS(=O)(=O)c3cc(Cl)ccc3Cl)C2)cc1,Active
14.6,> 80,Cc1ccc(F)cc1S(=O)(=O)N[C@@H]1CCN(Cc2ccc3c(c2)OCO3)C1,
29.9,> 80,Cc1ccc(F)cc1S(=O)(=O)N[C@@H]1CCN(Cc2cccc3[nH]ccc23)C1,
31.5,> 80,Cc1ccc(F)cc1S(=O)(=O)N[C@@H]1CCN(Cc2ccc(Br)cc2)C1,
,> 40,C#Cc1ccc(S(=O)(=O)N[C@@H]2CCN(Cc3ccc(N=[N+]=[N-])cc3)C2)cc1,
24.9,> 80,Cc1ccc(F)cc1S(=O)(=O)N[C@@H]1CCN(Cc2ccc3[nH]ccc3c2)C1,
13.7,< 10,Cc1ccc(F)cc1S(=O)(=O)N[C@@H]1CCN(Cc2ccc(CC(C)C)cc2)C1,
,20,CC(C)Cc1ccc(CN2CCC[C@@H](CNS(=O)(=O)c3cc(Cl)ccc3Cl)C2)cc1,
,> 64,C#Cc1ccc(S(=O)(=O)N[C@@H]2CCN(Cc3ccc(OC(C)C)c(N=[N+]=[N-])c3)C2)cc1,
26.9,> 80,Cc1ccc(F)cc1S(=O)(=O)N[C@@H]1CCN(Cc2ccc(C(F)(F)F)cc2)C1,
